Common to all, as to assay: DTP human tumour cell line panel, 48 h
In assay [1] the test system is RXF 393 renal.
For assay [2], the system named is HCT-15 colon.
In assay [3] the test system is SK-MEL-5 melanoma.
The subject of assay [4] is HS 578T breast.
Assay [5] has as its system SN12C renal.
The subject of assay [6] is UO-31 renal.
Assay [7] concerns SW-620 colon.
Assay [8] has as its system OVCAR-8 ovarian.
For assay [9], the system named is MDA-MB-435.
The test system of assay [10] is MCF7 breast.

Values joined by “and” are separate entries in the source; they are usually repeats but may differ in a detail not shown here. Identical values can stand only once.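 Five compound concentrations were applied to cells in 96-well plates for 48 hours; endpoints were derived by simple linear interpolation of the resulting dose-response curve. Definition used: TGI = concentration required for complete inhibition of growth.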

`O=C(Cn1c2ccc(Br)cc2c2nc3ccccc3nc21)NC1CCCCC1`: the TGI in assay [1], in assay [2], in assay [3], in assay [4], in assay [5] and in [6] was more than 100 µM each time. The TGI in assay [7], in [8] and in [9] was more than 100 µM throughout.
In the case of `Cc1nc2c(n1Cc1ccc(Cl)cc1)C(=O)c1ccccc1C2=O`, the TGI in assay [1], in [2], in assay [3], in assay [5], in assay [6] and in assay [8] was more than 75 µM each time.
Regarding `O=C1CCC2(CC1)Cc1ccccc1C2O` (stereo not drawn), the TGI in assay [10], in [2], in assay [3], in assay [4], in assay [5] and in assay [6] was more than 100 µM each time. Moreover, the total growth inhibition concentration (TGI) in assay [7] and in assay [8] was more than 100 µM throughout.
For the compound `Cc1ccc2ccccc2c1CC1S(=O)(=O)OCCOS1(=O)=O`, the total growth inhibition concentration (TGI) is 23.1 µM in [10]; 42.9 µM in assay [2]; 26.4 µM in assay [3]; 23.7 µM in assay [5]; 27.1 µM in [6]; 37.1 µM in [8]. The compound further showed a TGI in [9] of 22 µM.
Turning to `O=C1C/C(=C\O)C(=O)c2ccccc2N1`, the TGI in assay [1], in assay [10], in [2], in [3], in [4] and in [5] was more than 100 µM throughout. The concentration for total growth inhibition (TGI) in assay [6], in assay [8] and in assay [9] was more than 100 µM in each case.
Regarding `CC(=O)Oc1ccc2cc(Oc3ccc(Cl)cc3)c(=O)oc2c1`, the TGI is more than 100 µM in assay [1]; more than 100 µM in assay [10]; more than 100 µM in assay [2]; 41.9 µM in assay [3]; more than 100 µM in assay [4]; more than 100 µM in assay [5]. Besides, the concentration for total growth inhibition (TGI) in [6] was more than 100 µM; in [7], more than 100 µM; in assay [8] it was 54 µM.
`CCOC(=O)c1cc(-c2ccc(OC)c(OC)c2)c[nH]1`: the TGI in assay [1], in assay [10], in assay [2], in assay [3], in assay [4] and in [5] was more than 10 µM each time. The concentration for total growth inhibition (TGI) in assay [6], in [8] and in assay [9] was more than 10 µM throughout.
In the case of `c1ccc2c3c(ccc2c1)CSCc1ccc2ccccc2c1-3`, the concentration for total growth inhibition (TGI) in [1], in assay [10], in assay [2], in [3], in [4] and in [5] was more than 100 µM throughout. Moreover, the TGI in assay [6], in [8] and in [9] was more than 100 µM each time.
As for `CCCCN(CCCC)C(=NCc1ccccc1)NC#N`, the TGI in [1] was 39.8 µM; in assay [2], 28.2 µM; in assay [3], 38.9 µM; in assay [5] it was 44.4 µM; in [6], 25.3 µM; in assay [7], 31 µM. The compound further yielded a TGI in assay [8] of more than 100 µM.
For `CCCCCCCCCCCCOC1C(COCCN2CCCC2)OC2OC(C)(C)OC21` (stereo not drawn), the total growth inhibition concentration (TGI) in assay [1] amounted to 3.17 µM; in assay [10], 3.1 µM; in [2] it was 3.17 µM; in assay [3], 2.95 µM; in [4], 3.51 µM; in assay [5], 3.24 µM. For the same compound, the concentration for total growth inhibition (TGI) in assay [6] came to 2.96 µM; in [8], 3.03 µM; in assay [9], 3.14 µM.
`Brc1ccc(N2C[N+](c3ccc(Br)cc3)=NC(c3ccccc3)=N2)cc1`: the TGI in assay [1] is 37.7 µM and > 100 µM; in [2], 33.5 µM and > 100 µM; in [3], 29.4 µM and > 100 µM; in assay [5], 33.3 µM and > 100 µM; in assay [6] it was 27.6 µM and > 100 µM; in assay [7], 40.9 µM and > 100 µM. For the same compound, the TGI in [8] was 41.9 µM and > 100 µM.
As for `Oc1ccc(-c2c3c(nc4c2CCc2ccc(Br)cc2-4)-c2cc(Br)ccc2CC3)cc1`, the TGI was 43.1 µM in assay [10]; 35.5 µM in [2]; 35.7 µM in assay [3]; 43.6 µM in [5]; 38.4 µM in assay [6]; 45 µM in assay [9].
In the case of `COC(=O)Cc1c(C2=Nc3ccccc3C2(O)CC(=O)OC)[nH]c2ccccc12` (stereo not drawn), the concentration for total growth inhibition (TGI) in assay [1], in assay [2], in assay [3], in assay [4], in assay [5] and in assay [6] was more than 100 µM each time. The concentration for total growth inhibition (TGI) in assay [7], in assay [8] and in [9] was more than 100 µM each time.
Regarding `O=C(c1cccs1)N(C(=S)N1CCN(c2ccccc2)CC1)c1ccccc1`, the total growth inhibition concentration (TGI) in assay [1], in [2], in assay [3], in [5], in assay [6] and in assay [7] was more than 100 µM throughout. Further, the concentration for total growth inhibition (TGI) in assay [8] is more than 100 µM.
In the case of `Cc1cnc(Cl)nc1C(C#N)c1nc2ccccc2n1C` (stereo not drawn), the total growth inhibition concentration (TGI) in [1], in [2], in assay [3], in assay [5], in assay [6] and in assay [7] was more than 100 µM in each case. Besides, the TGI in [8] and in assay [9] was more than 100 µM each time.
On to `Cc1ccc(-c2cc(-c3ccc(Cl)cc3)nc(/N=C3\C(=O)N(CN4CCCCC4)c4ccc(Cl)cc43)n2)cc1`, for which the TGI in assay [1] was 33.2 µM; in assay [10], 77.9 µM; in assay [2], more than 100 µM; in [3] it was 48.1 µM; in assay [4], 49.4 µM; in assay [5], 62.3 µM. Also, the concentration for total growth inhibition (TGI) is more than 100 µM in assay [7], 38.8 µM in [8] and 42.9 µM in assay [9].

In general, TGI refers to the concentration at which net growth stops. A low value points to more potent growth arrest.

The values are drawn from PubChem BioAssay (NCI).
